Key:
[1] = biological target: recombinant GST-tagged MDM2 (Homo sapiens, UniProt Q00987); assay: HTRF assay of interaction between p53 peptide and GST-tagged MDM2; settings: inhibition of GST-MDM2 (160 ng/ml) binding to biotinylated p53-peptide
Method: The ability of a test compound to inhibit the interaction between p53 and MDM2 protein was measured by an HTRF (homogeneous time-resolved fluorescence) assay in which recombinant GST-tagged MDM2 binds to a peptide that resembles the MDM2-interacting region of p53 Aca-[…]-OH hereinafter p53-peptide). Binding of GST-MDM2 protein and p53-peptide (biotinylated on its N-terminal end) is registered by the FRET (fluorescence resonance energy transfer) between Europium (Eu)-labeled anti-GST antibody and streptavidin-conjugated Allophycocyanin (APC).
The test was performed in black flat-bottom 384-well plates (Costar) in a total volume of 40 uL containing: 90 nM biotinylated peptide, 160 ng/ml GST-MDM2, 20 nM streptavidin-APC (PerkinElmerWallac), 2 nM Eu-labeled anti-GST-antibody (PerkinElmerWallac), 0.02% bovine serum albumin (BSA), 1 mM dithiothreitol (DTT) and 20 mM […] (TBS) buffer as follows: add 10 uL of GST-MDM2 (640 ng/ml working solution) in reaction buffer to each well. Add 10 uL diluted compounds (1:5 dilution in reaction buffer) to each well, mix by shaking. Add 20 uL biotinylated p53 peptide (180 nM working solution) in reaction buffer to each well and mix on shaker. Incubate at 37° C. for 1 h. Add […] streptavidin-APC and Eu-anti-GST antibody mixture (6 nM Eu-anti-GST and 60 nM streptavidin-APC working solution) in TBS buffer with 0.02% BSA, shake at room temperature for 30 minutes and read using a TRF-capable plate reader at 665 and 615 nm (Victor 5, Perkin ElmerWallac). If not specified, the reagents were purchased from Sigma Chemical Co.

GST-tagged MDMX = biological target: T1, GST-tagged MDMX (Homo sapiens, UniProt O15151); assay: HTRF binding assay of GST-tagged MDMX to p53 peptide
T1 sequence (O15151 1-490): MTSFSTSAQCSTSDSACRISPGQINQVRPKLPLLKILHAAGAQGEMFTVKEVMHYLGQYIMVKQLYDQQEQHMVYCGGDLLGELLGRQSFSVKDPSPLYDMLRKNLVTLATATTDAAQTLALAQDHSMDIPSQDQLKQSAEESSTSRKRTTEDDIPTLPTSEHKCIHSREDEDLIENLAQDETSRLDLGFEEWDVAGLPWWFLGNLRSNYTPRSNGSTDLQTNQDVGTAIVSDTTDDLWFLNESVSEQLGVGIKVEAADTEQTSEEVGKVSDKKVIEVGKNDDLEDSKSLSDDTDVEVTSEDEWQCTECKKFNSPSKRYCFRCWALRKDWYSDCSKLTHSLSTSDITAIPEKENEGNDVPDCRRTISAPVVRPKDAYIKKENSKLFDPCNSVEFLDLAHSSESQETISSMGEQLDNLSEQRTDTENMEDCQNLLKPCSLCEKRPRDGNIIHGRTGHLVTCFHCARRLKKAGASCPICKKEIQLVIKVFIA

recombinant GST-tagged MDM2, sequence (Q00987 whole entry): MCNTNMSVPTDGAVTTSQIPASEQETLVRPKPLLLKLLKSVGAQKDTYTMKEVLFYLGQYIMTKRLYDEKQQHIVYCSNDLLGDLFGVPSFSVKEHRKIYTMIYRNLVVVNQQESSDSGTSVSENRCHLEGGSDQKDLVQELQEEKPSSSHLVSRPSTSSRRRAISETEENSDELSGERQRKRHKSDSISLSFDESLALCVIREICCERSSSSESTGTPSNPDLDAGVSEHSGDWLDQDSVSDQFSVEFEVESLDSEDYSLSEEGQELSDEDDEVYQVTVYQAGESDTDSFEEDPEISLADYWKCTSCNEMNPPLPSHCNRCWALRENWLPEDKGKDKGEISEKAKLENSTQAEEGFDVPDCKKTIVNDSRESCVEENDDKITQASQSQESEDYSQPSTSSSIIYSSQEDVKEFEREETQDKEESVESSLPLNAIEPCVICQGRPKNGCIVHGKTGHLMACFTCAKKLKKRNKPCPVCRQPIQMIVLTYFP

SMILES | IC50 [1] [nM] | IC50 (GST-tagged MDMX) [nM]
CCOc1cc(Cl)c(S(=O)(=O)NC(C)(C)C)cc1C1=N[C@@](C)(c2ccc(Cl)cc2)[C@@](C)(c2ccc(Cl)cc2)N1C(=O)N1CCN(C2CCS(=O)(=O)C2)CC1 (stereo partly drawn) [Example 51, 5-{(4S,5R)-4,5-Bis-(4-chloro-phenyl)-1-[4-(1,1-dioxo-tetrahydro-thiophen-3-yl)-piperazine-1-carbonyl]-4,5-dimethyl-4,5-dihydro-1H-imidazol-2-yl}-N-tert-butyl-2-chloro-4-ethoxy-benzenesulfonamide] | 7 | 798
CCOc1cc(Cl)c(S(C)(=O)=O)cc1C1=N[C@@](C)(c2ccc(Cl)cc2)[C@@](C)(c2ccc(Cl)cc2)N1C(=O)N1CCC2(CCN(CC(N)=O)CC2)CC1 [Example 21, 2-{9-[(4S,5R)-2-(4-Chloro-2-ethoxy-5-methanesulfonyl-phenyl)-4,5-bis-(4-chloro-phenyl)-4,5-dimethyl-4,5-dihydro-imidazole-1-carbonyl]-3,9-diaza-spiro[5.5]undec-3-yl}-acetamide] | 5.8 | 1490
CCOc1cc(Cl)c(S(=O)(=O)NC(C)(C)C)cc1C1=N[C@@](C)(c2ccc(Cl)cc2)[C@@](C)(c2ccc(Cl)cc2)N1C(=O)N1CCN(CCOCCO)CC1 [Example 46, 5-((4S,5R)-4,5-Bis-(4-chloro-phenyl)-1-{4-[2-(2-hydroxy-ethoxy)-ethyl]-piperazine-1-carbonyl}-4,5-dimethyl-4,5-dihydro-1H-imidazol-2-yl)-N-tert-butyl-2-chloro-4-ethoxy-benzenesulfonamide] | 12.2 | 1810
CCOc1cc(Cl)c(S(C)(=O)=O)cc1C1=N[C@@](C)(c2ccc(Cl)cc2)[C@@](C)(c2ccc(Cl)cc2)N1C(=O)N1CCN(C2CCS(=O)(=O)C2)CC1 (stereo partly drawn) [Example 20, [(4S,5R)-2-(4-Chloro-2-ethoxy-5-methanesulfonyl-phenyl)-4,5-bis-(4-chloro-phenyl)-4,5-dimethyl-4,5-dihydro-imidazol-1-yl]-[4-(1,1-dioxo-tetrahydro-thiophen-3-yl)-piperazin-1-yl]-methanone] | 5.4 | 3650
CC(C)Oc1cc(Cl)c(S(=O)(=O)N2C[C@H]3CC[C@@H](C2)O3)cc1C1=N[C@@](C)(c2ccc(Cl)cc2)[C@@](C)(c2ccc(Cl)cc2)N1C(=O)N1CCN(CCCS(C)(=O)=O)CC1 [Example 62, [(4S,5R)-2-{4-Chloro-2-isopropoxy-5-[(1R,5S)-(8-oxa-3-aza-bicyclo[3.2.1]oct-3-yl)sulfonyl]-phenyl}-4,5-bis-(4-chloro-phenyl)-4,5-dimethyl-4,5-dihydro-imidazol-1-yl]-[4-(3-methanesulfonyl-propyl)-piperazin-1-yl]-methanone] | 4.8 | 193
CCOc1cc(Cl)c(S(C)(=O)=O)cc1C1=N[C@@](C)(c2ccc(Cl)cc2)[C@@](C)(c2ccc(Cl)cc2)N1C(=O)N1CCN(CCS(=O)(=O)CC)CC1 [Example 26, [(4S,5R)-2-(4-Chloro-2-ethoxy-5-methanesulfonyl-phenyl)-4,5-bis-(4-chloro-phenyl)-4,5-dimethyl-4,5-dihydro-imidazol-1-yl]-[4-(2-ethanesulfonyl-ethyl)-piperazin-1-yl]-methanone] | 5.2 | 2010
CCOCCN(CCOCC)C(=O)CC1CCN(C(=O)N2C(c3cc(S(C)(=O)=O)c(Cl)cc3OCC)=N[C@@](C)(c3ccc(Cl)cc3)[C@@]2(C)c2ccc(Cl)cc2)CC1 [Example 25, 2-{1-[(4S,5R)-2-(4-Chloro-2-ethoxy-5-methanesulfonyl-phenyl)-4,5-bis-(4-chloro-phenyl)-4,5-dimethyl-4,5-dihydro-imidazole-1-carbonyl]-piperidin-4-yl}-N,N-bis-(2-ethoxy-ethyl)-acetamide] | 4.4 | 1510
CCOc1cc(Cl)c(S(=O)(=O)NC(C)(C)C)cc1C1=N[C@@](C)(c2ccc(Cl)cc2)[C@@](C)(c2ccc(Cl)cc2)N1C(=O)N1CCCC(O)C1 (stereo partly drawn) [Example 54, 5-[(4S,5R)-4,5-Bis-(4-chloro-phenyl)-1-(3-hydroxy-piperidine-1-carbonyl)-4,5-dimethyl-4,5-dihydro-1H-imidazol-2-yl]-N-tert-butyl-2-chloro-4-ethoxy-benzenesulfonamide] | 16.1 | 4000
CCOc1cc(Cl)c(S(C)(=O)=O)cc1C1=N[C@@](C)(c2ccc(Cl)cc2)[C@@](C)(c2ccc(Cl)cc2)N1C(=O)N1CCN(CC(=O)N2CCOCC2)CC1 [Example 17, 2-{4-[(4S,5R)-2-(4-Chloro-2-ethoxy-5-methanesulfonyl-phenyl)-4,5-bis-(4-chloro-phenyl)-4,5-dimethyl-4,5-dihydro-imidazole-1-carbonyl]-piperazin-1-yl}-1-morpholin-4-yl-ethanone] | 5.2 | 1340
CCOc1cc(Cl)c(S(C)(=O)=O)cc1C1=N[C@@](C)(c2ccc(Cl)cc2)[C@@](C)(c2ccc(Cl)cc2)N1C(=O)N1CCN(S(C)(=O)=O)CC1 [Example 7, [(4S,5R)-2-(4-Chloro-2-ethoxy-5-methanesulfonyl-phenyl)-4,5-bis-(4-chloro-phenyl)-4,5-dimethyl-4,5-dihydro-imidazol-1-yl]-(4-methanesulfonyl-piperazin-1-yl)-methanone] | 6.3 | 2490
CCOc1cc(Cl)c(S(C)(=O)=O)cc1C1=N[C@@](C)(c2ccc(Cl)cc2)[C@@](C)(c2ccc(Cl)cc2)N1C(=O)N1CCC(NC(=O)NC2CCCC2)CC1 [Example 31, 1-{1-[(4S,5R)-2-(4-Chloro-2-ethoxy-5-methanesulfonyl-phenyl)-4,5-bis-(4-chloro-phenyl)-4,5-dimethyl-4,5-dihydro-imidazole-1-carbonyl]-piperidin-4-yl}-3-cyclopentyl-urea] | 5.3 | 1590
CCOc1cc(Cl)c(S(C)(=O)=O)cc1C1=N[C@@](C)(c2ccc(Cl)cc2)[C@@](C)(c2ccc(Cl)cc2)N1C(=O)N1CCC(NC(=O)NC2CCS(=O)(=O)C2)CC1 (stereo partly drawn) [Example 34, 1-{1-[(4S,5R)-2-(4-Chloro-2-ethoxy-5-methanesulfonyl-phenyl)-4,5-bis-(4-chloro-phenyl)-4,5-dimethyl-4,5-dihydro-imidazole-1-carbonyl]-piperidin-4-yl}-3-(1,1-dioxo-tetrahydro-1λ6-thiophen-3-yl)-urea] | 6.3 | 1350
CCOc1cc(Cl)c(S(=O)(=O)CC)cc1C1=N[C@@](C)(c2ccc(Cl)cc2)[C@@](C)(c2ccc(Cl)cc2)N1C(=O)N1CCN(CCCS(C)(=O)=O)CC1 [Example 12, [(4S,5R)-2-(4-Chloro-5-ethanesulfonyl-2-ethoxy-phenyl)-4,5-bis-(4-chloro-phenyl)-4,5-dimethyl-4,5-dihydro-imidazol-1-yl]-[4-(3-methanesulfonyl-propyl)-piperazin-1-yl]-methanone] | 5.5 | 989
CCOc1cc(Cl)c(S(=O)(=O)N2CCOCC2)cc1C1=N[C@@](C)(c2ccc(Cl)cc2)[C@@](C)(c2ccc(Cl)cc2)N1C(=O)N1CCN(CCCS(C)(=O)=O)CC1 [Example 57, [(4S,5R)-2-[4-Chloro-2-ethoxy-5-(morpholine-4-sulfonyl)-phenyl]-4,5-bis-(4-chloro-phenyl)-4,5-dimethyl-4,5-dihydro-imidazol-1-yl]-[4-(3-methanesulfonyl-propyl)-piperazin-1-yl]-methanone] | 40 | 1640
CCNC(=O)NC1CCN(C(=O)N2C(c3cc(S(C)(=O)=O)c(Cl)cc3OCC)=N[C@@](C)(c3ccc(Cl)cc3)[C@@]2(C)c2ccc(Cl)cc2)CC1 [Example 10, 1-{1-[(4S,5R)-2-(4-Chloro-2-ethoxy-5-methanesulfonyl-phenyl)-4,5-bis-(4-chloro-phenyl)-4,5-dimethyl-4,5-dihydro-imidazole-1-carbonyl]-piperidin-4-yl}-3-ethyl-urea] | 4.2 | 974
C[C@@]1(c2ccc(Cl)cc2)N=C(c2cc(S(C)(=O)=O)c(Cl)cc2OCC2CC2)N(C(=O)N2CCN(CCCS(C)(=O)=O)CC2)[C@]1(C)c1ccc(Cl)cc1 [Example 42, [(4S,5R)-2-(4-Chloro-2-cyclopropylmethoxy-5-methanesulfonyl-phenyl)-4,5-bis-(4-chloro-phenyl)-4,5-dimethyl-4,5-dihydro-imidazol-1-yl]-[4-(3-methanesulfonyl-propyl)-piperazin-1-yl]-methanone] | 12.5 | 6630

Source: patent publication US20140148443A1, “Novel Imidazolines as dual inhibitors of MDM2 and MDMX” (priority 2012, published 2014)
